# Experiments:
# [1] = High-temperature test, related substances by HPLC; type: physicochemical; conditions: for Increase of impurity RRT0.66 content / Increase of impurity RRT1.02 content / Increase of impurity RRT1.08 content / Increase of total impurities / Impurity content RRT0.55 / Impurity content RRT0.66 / Impurity content RRT0.71 / Impurity content RRT0.94 / Impurity content RRT1.02 / Impurity content RRT1.06 / Impurity content RRT1.08 / Impurity content RRT1.15 / Total impurities: 50°C±2°C; for Impurity content RRT0.55 / Impurity content RRT0.66 / Impurity content RRT0.71 / Impurity content RRT0.94 / Impurity content RRT1.02 / Impurity content RRT1.06 / Impurity content RRT1.08 / Impurity content RRT1.15 / Total impurities: open
# Procedure: An investigation method for the high-temperature test can be seen in Table 11 below.
# Results of related substances in each crystal form under the high-temperature condition (50°C±2°C) can be seen in Table 15.
# HPLC detection results of related substances under the high-temperature condition: Table 15
# [2] = Approximate solubility in organic solvents at room temperature; type: physicochemical
smiles,measurement,setting,value
C[C@@H](Nc1ccn2ncc(C3=NOC(C)(C)N3)c2n1)c1cc(F)cc(F)c1F [crystal form E],Increase of impurity RRT0.66 content,[1]; 32 days,0.05%
same,Increase of impurity RRT1.02 content,[1]; 32 days,0.19%
same,Increase of impurity RRT1.08 content,[1]; 32 days,0.23%
same,Increase of total impurities,[1]; 32 days,0.51%
same,Impurity content RRT0.55,[1]; 0 day,0.04%
same,Impurity content RRT0.66,[1]; 0 day,0.21%
same,Impurity content RRT0.71,[1]; 0 day,0.14%
same,Impurity content RRT0.94,[1]; 0 day,0.03%
same,Impurity content RRT1.02,[1]; 0 day,0.21%
same,Impurity content RRT1.06,[1]; 0 day,0.07%
same,Impurity content RRT1.08,[1]; 0 day,0.17%
same,Impurity content RRT1.15,[1]; 0 day,0.03%
same,Total impurities,[1]; 0 day,0.89%
same,Impurity content RRT0.55,[1]; 5 days,0.03%
same,Impurity content RRT0.66,[1]; 5 days,0.22%
same,Impurity content RRT0.71,[1]; 5 days,0.15%
same,Impurity content RRT0.94,[1]; 5 days,0.03%
same,Impurity content RRT1.02,[1]; 5 days,0.27%
same,Impurity content RRT1.06,[1]; 5 days,0.05%
same,Impurity content RRT1.08,[1]; 5 days,0.24%
same,Impurity content RRT1.15,[1]; 5 days,0.03%
same,Total impurities,[1]; 5 days,1.03%
same,Impurity content RRT0.55,[1]; 11 days,0.04%
same,Impurity content RRT0.66,[1]; 11 days,0.22%
same,Impurity content RRT0.71,[1]; 11 days,0.13%
same,Impurity content RRT0.94,[1]; 11 days,0.03%
same,Impurity content RRT1.02,[1]; 11 days,0.30%
same,Impurity content RRT1.06,[1]; 11 days,0.06%
same,Impurity content RRT1.08,[1]; 11 days,0.29%
same,Impurity content RRT1.15,[1]; 11 days,0.03%
same,Total impurities,[1]; 11 days,1.10%
same,Impurity content RRT0.55,[1]; 32 days,0.04%
same,Impurity content RRT0.66,[1]; 32 days,0.26%
same,Impurity content RRT0.71,[1]; 32 days,0.14%
same,Impurity content RRT0.94,[1]; 32 days,0.05%
same,Impurity content RRT1.02,[1]; 32 days,0.40%
same,Impurity content RRT1.06,[1]; 32 days,0.05%
same,Impurity content RRT1.08,[1]; 32 days,0.40%
same,Impurity content RRT1.15,[1]; 32 days,0.05%
same,Total impurities,[1]; 32 days,1.40%
C[C@@H](Nc1ccn2ncc(C3=NOC(C)(C)N3)c2n1)c1cc(F)cc(F)c1F [crystal form A],Increase of impurity RRT0.66 content,[1]; 32 days,≤ 0.02%
same,Increase of impurity RRT1.02 content,[1]; 32 days,no obvious change
same,Increase of impurity RRT1.08 content,[1]; 32 days,0.05%
same,Increase of total impurities,[1]; 32 days,0.16%
same,Impurity content RRT0.55,[1]; 0 day,0.03%
same,Impurity content RRT0.66,[1]; 0 day,0.18%
same,Impurity content RRT0.71,[1]; 0 day,0.15%
same,Impurity content RRT0.94,[1]; 0 day,0.04%
same,Impurity content RRT1.02,[1]; 0 day,0.28%
same,Impurity content RRT1.06,[1]; 0 day,0.07%
same,Impurity content RRT1.08,[1]; 0 day,0.16%
same,Impurity content RRT1.15,[1]; 0 day,0.03%
same,Total impurities,[1]; 0 day,0.95%
same,Impurity content RRT0.55,[1]; 5 days,0.03%
same,Impurity content RRT0.66,[1]; 5 days,0.19%
same,Impurity content RRT0.71,[1]; 5 days,0.16%
same,Impurity content RRT0.94,[1]; 5 days,0.04%
same,Impurity content RRT1.02,[1]; 5 days,0.31%
same,Impurity content RRT1.06,[1]; 5 days,0.08%
same,Impurity content RRT1.08,[1]; 5 days,0.19%
same,Impurity content RRT1.15,[1]; 5 days,0.03%
same,Total impurities,[1]; 5 days,1.03%
same,Impurity content RRT0.55,[1]; 11 days,0.03%
same,Impurity content RRT0.66,[1]; 11 days,0.19%
same,Impurity content RRT0.71,[1]; 11 days,0.16%
same,Impurity content RRT0.94,[1]; 11 days,0.03%
same,Impurity content RRT1.02,[1]; 11 days,0.30%
same,Impurity content RRT1.06,[1]; 11 days,0.08%
same,Impurity content RRT1.08,[1]; 11 days,0.22%
same,Impurity content RRT1.15,[1]; 11 days,0.03%
same,Total impurities,[1]; 11 days,1.04%
same,Impurity content RRT0.55,[1]; 32 days,0.05%
same,Impurity content RRT0.66,[1]; 32 days,0.20%
same,Impurity content RRT0.71,[1]; 32 days,0.17%
same,Impurity content RRT0.94,[1]; 32 days,0.05%
same,Impurity content RRT1.02,[1]; 32 days,0.30%
same,Impurity content RRT1.06,[1]; 32 days,0.08%
same,Impurity content RRT1.08,[1]; 32 days,0.21%
same,Impurity content RRT1.15,[1]; 32 days,0.05%
same,Total impurities,[1]; 32 days,1.11%
same,Overall stability (conclusion),"[1]; compared with crystal form E and amorphous form, all four stress tests",the most stable crystal form
same,solubility,[2]; Acetone,> 40 mg/mL
same,solubility,[2]; Acetonitrile,> 44 mg/mL
same,solubility,[2]; Dichloromethane,> 40 mg/mL
same,solubility,[2]; Ethanol,> 38 mg/mL
same,solubility,[2]; Ethyl acetate,> 44 mg/mL
same,solubility,[2]; Isopropanol,> 42 mg/mL
same,solubility,[2]; Isopropyl acetate,> 38 mg/mL
same,solubility,[2]; Methanol,> 36 mg/mL
same,solubility,[2]; Methyl isobutyl ketone,> 40 mg/mL
same,solubility,[2]; Trichloromethane,> 44 mg/mL

# Source: patent EP4813989A1, “CRYSTAL, PHARMACEUTICAL COMPOSITION, PREPARATION METHOD THEREFOR, AND USE THEREOF” (TYK Medicines, Inc., priority 2023, dated 2025)
